Laboratory results reported in US11266743B2, “Peptide compositions and methods of use thereof” (priority 2017, dated 2022).
Entries after “also recorded” stand apart in the source; their conditions may differ.

Legend:
[1] = test system: HeLa, RAW264.7, HepG2, and MCF-7 cells; assay: TAMRA delivery assay (flow cytometry, confocal microscopy); assay type: cell-based; settings: 0.5 μM CPP-TA + 4.5 μM CPP-C, 30 minutes at 4° C., 22° C., or 37° C.
Method: To determine the effect of the PNA cargo on delivery, we labeled CPPs, lacking the PNA705 cargo, with the fluorophore TAMRA on a C-terminal cysteine residue (CPP-TA) and measured delivery to multiple cell types. TAMRA-labelled CPPs, mixed with unlabeled CPPs at a 1:10 ratio in serum-free DMEM for a final concentration of 5 μM total peptide, was added to HeLa, RAW264.7, HepG2, and MCF-7 cells in 12-well cell culture plates and incubated for 30 minutes at 4° C., 22° C., or 37° C. prior to flow cytometric analysis (FIGS. 9-16). […] Delivery of TAMRA was verified by confocal microscopy for each cell type.
Hela, RAW264.7, HCT116, HepG2, and MCF-7 cells were plated in 12-well plates at 100,000 cells/well. After 24 hours, cells were gently washed in PBS, topped with 500 μl of CPP-TA solution containing 0.5 μM CPP-TA+4.5 uM CPP-C in sfDMEM without phenol red, and incubated for 30 min at either 4° C., 23° C., or 37° C. The incubation solution was aspirated and cells were treated with 100 μl 0.025% Trypsin for 3 minutes at 23° C. 500 μl DMEM containing 2% FBS, 125 nM Sytox Green, and 20 mM HEPES was used to suspend the cells. Cells were transferred to a filter-topped flow cytometry tube and analyzed on a BD™ LSR II flow cytometer. Cells displaying a normal morphology were gated and first analyzed for GFP fluorescence using the 488 nM laser. GFP negative cells were used to generate a histogram of TAMRA fluorescence, measured with the 543 nM laser.
Cells were treated as described above for the TAMRA delivery assay and immediately imaged to avoid artifacts resulting from fixation. The distribution of TAMRA and Sytox Green was analyzed using a confocal scanning Nikon Eclipse Ti2 inverted microscope using a 40× oil-immersion objective. Sytox Green was excited using the 488 nM laser and TAMRA was excited using the 543 nM laser.

[2] = test system: Hela cells stably transfected with mCherry and GFP1-10; assay: Split GFP assay (GFP-11 delivery); assay type: cell-based; settings: 40 μM peptide-GFP-11, 37° C.
Method: To test the ability of CPPs to deliver other cargoes, specifically a protease-sensitive peptide cargo, we modified the well-known split-GFP assay. CPPs were tested for the ability to deliver the polar 16-residue GFP-11 peptide across the membrane barrier. This peptide rescues the fluorescence of the cytosolic endogenous, non-fluorescent GFP1-10 protein. Here, we stably transfected Hela cells with a plasmid containing the full length mCherry and the non-fluorescent GFP1-10. Following incubation with CPP-GFP-11 constructs at multiple concentrations and temperatures for 30 minutes in serum free DMEM, cells were analyzed by flow cytometry for mCherry and GFP fluorescence (FIG. 17). Live cells expressing mCherry (˜50% of the total cells) were gated and their GFP fluorescence was analyzed. Unlike the luciferase splice correction assay where a single corrected mRNA transcript serves as template for many molecules of functional luciferase, the split GFP assay is stoichiometric; a single GFP-11 peptide can bind to a single GFP1-10 protein producing a finite fluorescent response.
Hela cells were transfected with p_mCherry-GFP1-10 (Addgene plasmid #78591) using LIPOFECTAMINE® 3000 (ThermoFisher). Single mCherry positive cells were sorted into 96-well plates using a BD™ FACSARIA™ cell sorter and colonies were maintained under G418 selection at […]. Stably transfected cells were plated in 12-well plates at 100,000 cells/well and grown overnight in complete DMEM. Cells were washed in PBS and incubated in 500 μl of CPP-GFP-11 solution at variable concentrations at 23° C. and 37° C. for 30 minutes. The CPP-GFP-11 solution was aspirated and 100 μl of 0.025% trypsin solution was added to each well. After detachment, cells were suspended in 500 μL of PBS+2% FBS and 20 mM HEPES. Cells were analyzed using a BD™ LSRII flow cytometer. Cells displaying a normal morphology were gated and first analyzed for mCherry fluorescence using the 543 nM laser. mCherry+ cells were used to generate a histogram of GFP fluorescence measured with the 488 nM laser.

[3] = test system: Hela cells stably transfected with mCherry and GFP1-10; assay: Split GFP assay (GFP-11 delivery); assay type: cell-based; settings: 40 μM peptide-GFP-11, 22° C.
[4] = test system: P. aeruginosa; assay: Induced resistance, ten serial passages of broth sterilization assays; assay type: cell-based; settings: ⅔ serially diluted antibiotics, overnight growth
Excerpt: Bacterial resistance against peptide antibiotics is known to occur, although it is reportedly more difficult to induce than resistance against conventional antibiotics. P. aeruginosa can gain resistance to some AMPs through selection for a variant with altered outer membrane composition. We used P. aeruginosa in a screen (FIG. 36) to select against rapid resistance. We tested if P. aeruginosa can stably gain resistance to the rationally designed peptides described herein and we compared their ability to adapt to conventional antibiotics under the same conditions. For ten serial passages, we performed broth sterilization assays using ⅔ serially diluted antibiotics with overnight growth. For each passage, we used the bacteria that grew at the highest antibiotic concentration to expand overnight for the subsequent generation. […] All of the conventional antibiotics promoted increasing resistance, and two promoted complete resistance by 10 passages.

[5] = Safety study of aspirated D-NOGCON; assay type: in vivo, C57BL/6 mice; settings: aspiration
Method: (§1) The mice were then treated with D-NOGCON (SEQ ID NO:37), which were instilled in the trachea, exactly as described above for the administration of bacterial infection. Before attempting to treat a P. aeruginosa infection of the lung, we sought to establish a safe dose for administration of the D-NOGCON peptide via aspiration. Based on in vitro toxicity data (FIGS. 28D and 28E), a dosing regimen of 50 μL of D-NOGCON (100 μM) was administered every 8 hours for 3 days (9 doses). As a no treatment control, we administered 50 μL of PBS on the same schedule.
To monitor the toxicity we measured animal behavior and body weight changes (FIG. 29A). […] In the second safety trial, we administered 50 μL of D-NOGCON (50 μM) twice daily, for three days and monitored the animals behavior and body weight changes (FIG. 29B).

[6] = test system: S. aureus; assay: Radial diffusion in the presence of RBCs; assay type: cell-based; set-up: key: The ↑ represents the improvement in performance that would be desired for a viable in vivo antimicrobial peptide; ↓: The symbol represents a regression in desired behavior; *=p<0.05; **=p<0.01; ***=p<0.001; settings: change versus parent sequence; paired t-test
Method: Underlay agarose was prepared by adding 5 g of low EEO agarose and 0.03 g of TSB to 500 mL of 10 mM phosphate buffer (pH=7.4). Overlay agarose was prepared by adding 5 g of low EEO agarose and 30 g of TSB to 500 mL of 10 mM phosphate buffer (pH=7.4). Both solutions were heated until the agarose melted and then were autoclaved. To a rectangular, one-well plate, 20 mL of underlay agarose, inoculated with 8×10^6 CFUs of bacteria, was added. A sterile, 96-well plate replicator from Sigma-Aldrich was set in the molten agarose and removed one the agarose solidified. Antibiotic was prepared at 4 times the final desired concentration. For the antibiotic standard, a serial dilution of 3:4 across a 96-well plate was performed followed by 1:4 dilution with PBS. Otherwise, the peptide was diluted to 20 μM with RBCs and/or serum to give between 2% (1×10^8 cells/mL) and 20% (1×10^9 cells/mL). Solutions were incubated with gentle shaking for 30 minutes at 37° C. […]. Overlay was added, and the plate was incubated upside down overnight. Surface growth was cleared, the plates were sterilized with 25% methanol and 5% acetic acid. Zones of inhibition were photographed and analyzed using ImageJ. (FIG. 21)
The engineered peptide sequences and their derivation from parent sequences is shown, along with the underlying hypothesis described for the first set of peptides (Table 4) and the second set (Table 5). We performed statistical testing for performance in antimicrobial assays in the presence and absence of RBCs, as well as for cytotoxicity. The broth dilution results were tested using a two sample t-test (N=6-22). The radial diffusion results were tested using a paired t-test (N=4). The cytotoxicity results were tested using a paired t-test (N=3). The ↑ represents the improvement in performance that would be desired for a viable in vivo antimicrobial peptide. This corresponds to a decrease in MIC values (increased potency) and decreased cytotoxicity. The symbol represents a regression in desired behavior. (*=p<0.05, **=p<0.01, ***=p<0.001).

[7] = test system: P. aeruginosa PA01; assay: Acute pneumonia induced by P. aeruginosa aspiration; assay type: in vivo, C57BL/6 mice
Method: Female C57BL/6 mice, aged five weeks, were obtained from Charles River Laboratories. Upon receipt, they were allowed at least one week to recover from transport and acclimate to the new housing environment. Mice were maintained on a standard chow diet. Experiments were performed with mice no younger than six weeks and no older than nine weeks. P. aeruginosa PA01 was cultured overnight in tryptic soy broth (TSB) at 37° C. and shaken at 220 RPM. Prior to infecting the mice, the overnight culture was diluted 100-fold into 25-mL of fresh TSB. The culture was grown for three hours before optical density was determined. Previous growth curve experiments allowed us to dilute this newly expanded culture to 1.4×10^8 CFU/mL. To infect an animal, mice were anesthetized using isoflurane and 50 μL of bacterial suspension (7×10^6 CFUs) was administered via intratracheal instillation. Briefly, the anesthetized mice were suspended from wire by their front feet and blunt forceps were used to extract the tongue. The tongue was pulled out and downward. The bacterial suspension was deposited in the back of the throat with a micropipette. The nares of the animal were then covered while the mouse recovered from anesthesia. The chest was gently rubbed to promote inhalation. The mice were made to inhale 15 times before the tongue was released and the mouse was removed from the wire. The animals were then allowed a minute to fully awaken and then returned to their cages.
as §1
Our initial experiment was survival-based. We infected 8 mice (4 for treatment, 4 for vehicle) with the above bacterial load in 50 μL of PBS and allowed 2 hours of recovery prior to the initial treatment administration. After the recovery period, dosing proceeded as it had for the second safety study (50 μL, 50 μM, 2× daily). […] At the 24-hour time point, mice from both groups lost ˜12% body weight (FIG. 30A). Between 24 and 48-hour timepoints, 3 controls and 1 treated animal were sacrificed (FIG. 30B). […] Euthanasia is required in these cases because the animals are clearly suffering and are not able to obtain the nutrients required for survival. […] The lungs of 3 animals from each treatment group were removed, homogenized, and plated on PIA plates to determine the P. aeruginosa CFU burden (FIG. 30C).
A third study reduced the CFU burden of P. aeruginosa to 7×10^6 and mice were treated as with the previous experiment. As in the previous experiment, both treated and untreated animals lost 10-12% of their body weight after 24 hours (FIG. 31A). […] What was not taken into consideration in this experiment was the propensity for infection to spread to other tissues.

[8] = test system: P. aeruginosa biofilms; assay: Activity against P. aeruginosa biofilms; assay type: cell-based; settings: 25 μM
Method: Bacterial biofilm formation on implanted medical devices is a serious medical problem because these biofilms can lead to life-threatening systemic infections. We tested selected peptides and rationally designed variants against biofilms formed by P. aeruginosa. […] D-NOGCON reduces viable bacteria by 3.6 logs ( 1/3000 reduction) at 25 μM, while the best conventional antibiotic, Ciprofloxacin, reduced viable bacteria by only 1.7 logs ( 1/55 reduction) at 25 μM.

[9] = test system: P. aeruginosa; assay: Deep wound infection with luminescent P. aeruginosa, whole animal imaging; assay type: in vivo, mice
Method: Deep wounds in mice were infected with a luminescent strain of P. aeruginosa and monitored with whole animal imaging (FIGS. 35-37). In FIG. 36 infections are just beginning to become established. Areas of red indicate maximal bacterial colonization. No treatments have occurred. Treatment was twice per day, with 50 μg of D-NOGCON peptide in 20 μL of vehicle (0.025% acetic acid) starting 2 hours after infection. […] In the control animals (FIG. 36A), the infection is fully established across the entire wound bed and saturated the detector (red color). In the treated animals (FIG. 36B) the infection is much smaller in area and much lower in intensity, indicating it is under control.

GRKKRRQRRRPPQ [TAT, reference compound]
TAMRA delivery (words, rank order) [1]: CPP-2»CPP-3=CPP-1>CPP-4>TAT=penetratin
mCherry positive cells GFP-11 is delivered to [2]: 21%
mCherry positive cells GFP-11 is delivered to [3]: 7%

RRWARLRLVLAY [ARVA]
induction of resistance [4]: promoted total resistance in a few passages

RRWARRLAFAFRR [D-NOGCON]
tolerability (behavior and body weight changes) ([5]; 50 μL of 50 μM twice daily for three days): sufficiently safe
tolerability (behavior and body weight changes) ([5]; 50 μL of 100 μM every 8 hours for 3 days): too toxic for the animals to tolerate
Radial Diffusion vs. S. aureus [6]: ↑Radial diffusion vs.
body weight lost ([7]; survival study, 24-hour time point, same in vehicle group): ~12%
survival of the initial 24 hours ([7]; survival study, 50 μL, 50 μM, 2× daily, first dose 2 hours after infection): All mice from both treatment groups survived
animals sacrificed ([7]; survival study, between 24 and 48-hour timepoints, 4 mice per group, 3 controls sacrificed): 1
body weight lost ([7]; survival study, day 3, all animals of both groups): more than 20%
infection titer ([7]; survival trial, 50 μL, 50 μM, 2× daily): little improvement in the infection titer
infection titer over control ([7]; third experiment, lower CFU burden): little improvement
body weight lost ([7]; third study, after 24 hours, same in untreated animals): 10-12%
CFU burden versus untreated ([7]; third study, two doses over 24 hours): non-significant increase
reduction of viable bacteria in biofilm [8]: 3.6 logs
wound infection (luminescence imaging) ([9]; after a single day of treatment, 50 μg in 20 μL twice per day starting 2 hours after infection): dramatically reduced compared to the control
integrated luminescence ([9]; first 5 days, treated on days 0, 1, and 2): significant protection, slowing of bacterial growth and more rapid clearance over control
summed activity and behavior scores ([9]; scale 0 (normal) to 3 each for five items, maximum 15): more normal behavior; also recorded: better summed behavioral scores
